Results on eight compounds are retold here after PubChem BioAssay AID252 (DTP/NCI, 2004).

The test system of the experiment is BDF1 mice, intracerebral L1210 leukemia, survival T/C. In words: NCI In Vivo Anticancer Drug Screen. Data for tumor model L1210 Leukemia (intracerebral) in B6D2F1 (BDF1) mice. To be noted: endpoint: mean survival time, higher = longer survival. The method in brief:
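Survival measured in treated and vehicle-control tumour-bearing mice; value = T/C.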

[1] abbreviates: dose: 8.0 mg/kg/injection, schedule: Q01DX001 (ip), vehicle: other.
Setting [2] is: dose: 11.0 mg/kg/injection, schedule: Q01DX001 (ip), vehicle: other.
Where [3] appears, read: dose: 12.0 mg/kg/injection, schedule: Q01DX001 (ip), vehicle: other.
Setting [4] is: dose: 16.0 mg/kg/injection, schedule: Q01DX001 (ip), vehicle: other.
The mark [5] stands for this setting: dose: 24.0 mg/kg/injection, schedule: Q01DX001 (ip), vehicle: other.
The mark [6] stands for this setting: dose: 10.0 mg/kg/injection, schedule: Q01DX001 (ip), vehicle: other.
The mark [7] stands for this setting: dose: 30.0 mg/kg/injection, schedule: Q01DX001 (ip), vehicle: other.
Where [8] appears, read: dose: 40.0 mg/kg/injection, schedule: Q01DX001 (ip), vehicle: other.

Values joined by “and” are separate entries in the source; they are usually repeats but may differ in a detail not shown here. Equal entries are not always repeated. Toxic doses and inconclusive results are not listed.

Consider `O=NN(CCCl)C(=O)NC1CCC(=O)NC1=O` (configuration not stated), for which the T/C reads like this: (dose: 2.1 mg/kg/injection, schedule: Q01DX001 (ip), vehicle: other) 106 % of control and 116 % of control; (dose: 4.0 mg/kg/injection, schedule: Q01DX001 (ip), vehicle: other) 156 % of control and 226 % of control; under setting [1], 159 % of control and 161 % of control and 183 % of control; (dose: 8.0 mg/kg/injection, schedule: Q01DX001 (ip), vehicle: saline with Tween-80) 352 % of control; under setting [2], 251 % of control; under setting [3], 298 % of control and 327 % of control. The T/C by setting is: (dose: 13.0 mg/kg/injection, schedule: Q01DX001 (ip), vehicle: saline with Tween-80) 542 % of control; under setting [4], 274 % of control and 328 % of control; (dose: 17.0 mg/kg/injection, schedule: Q01DX001 (ip), vehicle: other) 389 % of control and 498 % of control; (dose: 20.0 mg/kg/injection, schedule: Q01DX001 (ip), vehicle: saline with Tween-80) 625 % of control; (dose: 22.0 mg/kg/injection, schedule: Q01DX001 (ip), vehicle: other) 251 % of control; under setting [5], 238 % of control and 335 % of control. For the same compound, the T/C (dose: 30.0 mg/kg/injection, schedule: Q01DX001 (ip), vehicle: saline with Tween-80) was 107 % of control; the T/C (dose: 33.0 mg/kg/injection, schedule: Q01DX001 (ip), vehicle: other) is 297 % of control; the T/C (dose: 35.0 mg/kg/injection, schedule: Q01DX001 (ip), vehicle: other) is 287 % of control and 353 % of control; the T/C (dose: 36.0 mg/kg/injection, schedule: Q01DX001 (ip), vehicle: other) is 205 % of control; the T/C (dose: 44.0 mg/kg/injection, schedule: Q01DX001 (ip), vehicle: other) was 275 % of control.
For the compound `O=NN(CCF)C(=O)NC1CCS(=O)(=O)CC1`, the T/C (dose: 2.5 mg/kg/injection, schedule: Q01DX001 (ip), vehicle: other) is 111 % of control; the T/C (dose: 2.9 mg/kg/injection, schedule: Q01DX001 (ip), vehicle: other) was 108 % of control and 114 % of control; the T/C (dose: 3.75 mg/kg/injection, schedule: Q01DX001 (ip), vehicle: other) was 118 % of control; the T/C (dose: 4.8 mg/kg/injection, schedule: Q01DX001 (oral), vehicle: other) is 181 % of control; the T/C (dose: 5.0 mg/kg/injection, schedule: Q01DX001 (ip), vehicle: other) is 124 % of control; the T/C (dose: 6.0 mg/kg/injection, schedule: Q01DX001 (ip), vehicle: other) was 121 % of control. Also, the T/C is, setting by setting: (dose: 7.0 mg/kg/injection, schedule: Q01DX001 (ip), vehicle: other) 165 % of control; (dose: 7.5 mg/kg/injection, schedule: Q01DX001 (ip), vehicle: other) 163 % of control; under setting [6], 183 % of control; under setting [2], 191 % of control; (dose: 11.0 mg/kg/injection, schedule: Q01DX001 (oral), vehicle: other) 200 % of control and 315 % of control; under setting [3], 150 % of control and 214 % of control. In addition, the T/C was 202 % of control (dose: 15.0 mg/kg/injection, schedule: Q01DX001 (ip), vehicle: other); 284 % of control under setting [4]; 322 % of control (dose: 20.0 mg/kg/injection, schedule: Q01DX001 (ip), vehicle: other); 477 % of control and 662 % of control (dose: 21.0 mg/kg/injection, schedule: Q01DX001 (oral), vehicle: other); 341 % of control and 410 % of control and 463 % of control under setting [5]; 348 % of control under setting [7]. Besides, the T/C by setting is: under setting [8], 305 % of control; (dose: 40.0 mg/kg/injection, schedule: Q01DX001 (oral), vehicle: other) 456 % of control and 486 % of control; (dose: 48.0 mg/kg/injection, schedule: Q01DX001 (ip), vehicle: other) 354 % of control; (dose: 80.0 mg/kg/injection, schedule: Q01DX001 (oral), vehicle: other) 86 % of control.
Consider `Cc1[nH]c(=O)[nH]c(=O)c1N(CCF)CCCl`, for which the T/C (dose: 3.5 mg/kg/injection, schedule: Q01DX009 (ip), vehicle: Klucel (hydroxypropylcellulose) (HPC)) is 97 % of control; the T/C (dose: 7.0 mg/kg/injection, schedule: Q01DX009 (ip), vehicle: Klucel (hydroxypropylcellulose) (HPC)) is 88 % of control; the T/C (dose: 14.0 mg/kg/injection, schedule: Q01DX009 (ip), vehicle: Klucel (hydroxypropylcellulose) (HPC)) is 111 % of control; the T/C (dose: 28.0 mg/kg/injection, schedule: Q01DX009 (ip), vehicle: Klucel (hydroxypropylcellulose) (HPC)) was 94 % of control.
Take `C[C@]12C=CC(=O)C=C1CC[C@@H]1[C@@H]2C(=O)C[C@@]2(C)[C@H]1CC[C@]2(O)C(=O)CO`: the T/C is, setting by setting: (dose: 100.0 mg/kg/injection, schedule: Q01DX Z (sc), vehicle: steriod suspending solution) 97 % of control; (dose: 120.0 mg/kg/injection, schedule: Q01DX001 (sc), vehicle: steriod suspending solution) 102 % of control; (dose: 180.0 mg/kg/injection, schedule: Q01DX001 (sc), vehicle: steriod suspending solution) 103 % of control; (dose: 200.0 mg/kg/injection, schedule: Q01DX Z (sc), vehicle: steriod suspending solution) 109 % of control; (dose: 240.0 mg/kg/injection, schedule: Q01DX001 (sc), vehicle: steriod suspending solution) 103 % of control; (dose: 250.0 mg/kg/injection, schedule: Q01DX Z (sc), vehicle: steriod suspending solution) 112 % of control. The T/C reads like this: (dose: 375.0 mg/kg/injection, schedule: Q01DX Z (sc), vehicle: steriod suspending solution) 102 % of control; (dose: 500.0 mg/kg/injection, schedule: Q01DX Z (sc), vehicle: steriod suspending solution) 97 % of control; (dose: 750.0 mg/kg/injection, schedule: Q01DX Z (sc), vehicle: steriod suspending solution) 112 % of control.
Consider `O=NN(CCF)C(=O)Nc1ccccc1`, for which the T/C under setting [1] was 120 % of control.
For `C=CC(CN1CC1)OC(C)=O` (configuration not stated), the T/C (dose: 2.5 mg/kg/injection, schedule: Q01DX Z (ip), vehicle: saline) is 119 % of control; the T/C (dose: 11.0 mg/kg/injection, schedule: Q01DX001 (ip), vehicle: saline) was 113 % of control and 117 % of control; the T/C (dose: 17.0 mg/kg/injection, schedule: Q01DX001 (ip), vehicle: saline) was 117 % of control; the T/C (dose: 25.0 mg/kg/injection, schedule: Q01DX001 (ip), vehicle: saline) was 119 % of control; the T/C (dose: 25.0 mg/kg/injection, schedule: Q01DX Z (ip), vehicle: saline) was 120 % of control; the T/C (dose: 30.0 mg/kg/injection, schedule: Q01DX Z (ip), vehicle: saline) is 105 % of control.
For `C[C@@H]1C[C@@H]([C@H](O)CC2CC(=O)NC(=O)C2)C(=O)[C@@H](C)C1`, the T/C is 121 % of control (dose: 16.0 mg/kg/injection, schedule: Q01DX015 (ip), vehicle: saline); 120 % of control (dose: 24.0 mg/kg/injection, schedule: Q01DX015 (ip), vehicle: saline); 116 % of control (dose: 36.0 mg/kg/injection, schedule: Q01DX015 (ip), vehicle: saline); 98 % of control (dose: 44.0 mg/kg/injection, schedule: Q01DX001 (ip), vehicle: saline); 104 % of control (dose: 67.0 mg/kg/injection, schedule: Q01DX001 (ip), vehicle: saline); 103 % of control (dose: 100.0 mg/kg/injection, schedule: Q01DX001 (ip), vehicle: saline).
`O=NN(CCF)C(=O)NC1CCC(NC(=O)N(CCF)N=O)CC1` (configuration not stated): the T/C is 110 % of control under setting [6]; 120 % of control (dose: 25.0 mg/kg/injection, schedule: Q01DX001 (ip), vehicle: other); 155 % of control under setting [7]; 193 % of control under setting [8]; 224 % of control (dose: 50.0 mg/kg/injection, schedule: Q01DX001 (ip), vehicle: other); 202 % of control (dose: 60.0 mg/kg/injection, schedule: Q01DX001 (ip), vehicle: other). In addition, the T/C reads like this: (dose: 80.0 mg/kg/injection, schedule: Q01DX001 (ip), vehicle: other) 293 % of control and 329 % of control; (dose: 110.0 mg/kg/injection, schedule: Q01DX001 (ip), vehicle: other) 294 % of control; (dose: 120.0 mg/kg/injection, schedule: Q01DX001 (ip), vehicle: other) 319 % of control and 334 % of control; (dose: 180.0 mg/kg/injection, schedule: Q01DX001 (ip), vehicle: other) 277 % of control; (dose: 187.0 mg/kg/injection, schedule: Q01DX001 (ip), vehicle: other) 170 % of control; (dose: 240.0 mg/kg/injection, schedule: Q01DX001 (ip), vehicle: other) 262 % of control.
